{"source": "patent EP4729530A1", "about": "“NOVEL PEPTIDE AND USE THEREOF” (Gemvax & Kael Co., Ltd., priority 2023, dated 2024)", "key": {"4R Tau^P301L-BiFC mouse [1]": {"system": "4R Tau^P301L-BiFC mouse", "experiment": "Novel object recognition experiment in 4R tauopathy mouse model", "type": "in vivo", "settings": "GV2002 2 mg/kg subcutaneous, 3 times/week, 21 weeks", "protocol": "(§1) In vivo experiments were performed on the 4R tauopathy mouse groups shown in FIG. 4 according to the schedule shown in FIG. 5 and the outline in Table 3 below.\nNovel object recognition experiments were conducted on a 4R tauopathy mouse model administered GV2002 for five months, from 7.5 to 12.5 months of age, to evaluate the efficacy of GV2002 in alleviating impairment in cognitive ability.\nMice that underwent the experiment from days 1 to 6 according to the experimental method in Example 4-2 were subjected to a novel object recognition experiment on days 7 and 8. […] On day 8, one of the two objects was replaced with a novel object, and mice were placed in the enclosure and observed for 10 minutes, during which the time spent exploring the novel object was measured. Prior to the experiments on days 7 and 8, mice were allowed one hour to acclimate to the testing environment. The illumination level was maintained at a constant level throughout the experiment. The recorded data were analyzed using two-way ANOVA with Sidak's multiple comparisons test."}, "4R Tau^P301L-BiFC mouse [2]": {"system": "4R Tau^P301L-BiFC mouse", "experiment": "Rota-rod experiment in 4R tauopathy mouse model", "type": "in vivo", "settings": "3 times/week, 21 weeks", "protocol": "as §1\nRota-rod experiments were conducted on mice with 4R tauopathy treated with GV2002 for five months, from 7.5 to 12.5 months of age, to evaluate the efficacy of GV2002 in alleviating impairment in motor ability.\nOn day 1, acclimation training was conducted, and on day 2, behavioral testing was conducted. Prior to acclimation training and behavioral testing, mice were allowed to acclimate to the testing environment for one hour. During acclimation training, mice walked on a […] at a speed ranging from 5 to 25 rpm for 300 seconds, and any mouse that lost its balance and fell to the floor was allowed to walk again. […] The measured values were analyzed using a two-way ANOVA with Dunnett's multiple comparisons test."}, "[3]": {"experiment": "Pharmacokinetic profile in rats (intravenous and subcutaneous administration)", "type": "in vivo", "settings": "Sprague Dawley rats", "protocol": "To determine the pharmacokinetic profile of GV2002 prepared in Example 1, plasma was collected from rats administered with GV2002. The collected plasma was pretreated by protein precipitation using nine times the volume of methanol containing 0.1% formic acid, followed by centrifugation at 16,100 g for 10 minutes.\nGV2002 was administered intravenously (IV) to three Sprague Dawley rats per group. Blood samples were collected at 0.033, 0.083, 0.17, 0.25, 0.5, 1, and 2 hours after administration. The collected blood samples were centrifuged to separate plasma, pretreated, and analyzed using LC-MS. Pharmacokinetic parameters were calculated using the non-compartmental analysis model of the Phoenix WinNonlin (Pharsight, ver. 6.4, USA) program.\nGV2002 was administered subcutaneously (SC) to three Sprague Dawley rats per group. Blood samples were collected at 0.033, 0.083, 0.17, 0.25, 0.5, 1, and 2 hours after administration. The collected blood samples were centrifuged to separate plasma, pretreated, and analyzed using LC-MS. Pharmacokinetic parameters were calculated using the non-compartmental analysis model of Phoenix WinNonlin (Pharsight ver. 6.4, USA)."}, "tau oligomer formation": {"system": "tau oligomer formation", "experiment": "Brain Tau-BiFC imaging for tau oligomer formation", "type": "in vivo, mouse", "settings": "GV2002 2 mg/kg subcutaneous, 3 times/week, 21 weeks", "protocol": "as §1\nBrains from a 4R tauopathy mouse model administered GV2002 for five months, from 7.5 to 12.5 months of age, were removed and analyzed using lipid staining.\nBrain tissue sampling was performed in the same manner as in Example 4-5.\nTo remove autofluorescence from brain tissues through lipid staining, a 0.05% Sudan Black B solution in 70% ethanol was stirred overnight and then filtered through a 0.22-µm filter. 30-µm-thick frozen brain sections from each region were immersed in deionized water and washed three times for 5 minutes each. The brain tissue was then immersed in the prepared 0.05% Sudan Black B solution for 10 minutes to perform staining. The brain tissue stained with Sudan Black B was immersed in 0.1% PBS-T solution and washed at 30-second intervals to adjust the staining intensity and then washed three times with deionized water for 5 minutes each. Nuclear staining was performed by immersing the brain tissue in a 0.2-µg/mL Hoechst solution in deionized water for 20 minutes. The tissue was then washed three times with deionized water for 5 minutes each. Tau-BiFC imaging was performed using a slide scanner.\nTo obtain fluorescence images of the stained brain tissue, brain tissue slides were scanned using a Zeiss Axio Scan. Tau-BiFC fluorescence levels in each brain region obtained through fluorescence imaging, i.e., the somatosensory cortex, hippocampus (CA1), motor cortex, and substantia nigra, were calculated using ImageJ software. The calculated values were analyzed using one-way ANOVA with Dunnett's multiple comparisons test."}, "4R Tau^P301L-BiFC mouse [4]": {"system": "4R Tau^P301L-BiFC mouse", "experiment": "Y-maze experiment in 4R tauopathy mouse model", "type": "in vivo", "settings": "GV2002 2 mg/kg subcutaneous, 3 times/week, 21 weeks; 8 minutes Y-maze", "protocol": "as §1\nY-maze experiments were conducted on a 4R tauopathy mouse model administered GV2002 for five months, from 7.5 to 12.5 months of age, to evaluate the efficacy of GV2002 in alleviating impairment in spatial memory.\nPrior to the experiment, mice were allowed one hour to acclimate to the testing environment. The mice's behavior was recorded for 8 minutes."}, "4R Tau^P301L-BiFC mouse [5]": {"system": "4R Tau^P301L-BiFC mouse", "experiment": "Open field experiment in 4R tauopathy mouse model", "type": "in vivo", "settings": "GV2002 2 mg/kg subcutaneous, 3 times/week, 21 weeks; 10 minutes open field", "protocol": "as §1\nOpen field experiments were conducted on mice with 4R tauopathy administered GV2002 for five months, from 7.5 to 12.5 months of age, to evaluate the efficacy of GV2002 in alleviating impairment in motor ability.\nTo prevent changes in mouse behavioral responses, handling was performed for five days (days 1 to 5) prior to the experiment. Each handling session lasted two minutes. On day 6, mice were placed in a 40 cm × 40 cm enclosure and subjected to an open field experiment for 10 minutes. Prior to the experiment, mice were allowed one hour to acclimate to the testing environment. During the open field experiment, movement trajectories, distance traveled, and movement speed of the mice were recorded. The illumination level was maintained at a constant level throughout the experiment. The recorded values were analyzed using one-way ANOVA with Dunnett's multiple comparisons test."}, "[6]": {"experiment": "Stability in human plasma (LC-MS, residual peptide)", "type": "in vitro ADME", "settings": "37 °C, read-out: percentage of residual peptide relative to the peptide amount before reaction", "protocol": "The peptide was added to human plasma and diluted to a concentration of 5 µM, followed by incubation at 37 °C for 10, 60, and 240 minutes with stirring. The reaction mixture was collected and pretreated by plasma protein precipitation using methanol containing 0.1% formic acid. The resulting supernatants were collected and analyzed by LC-MS under the conditions shown in Table 1 below to determine the percentage of residual peptide relative to the initial peptide amount."}}}
{"substance": "Ac-EARPALLTSRLRFIPK-NH2 [GV2002]", "values": [{"measurement": "time spent exploring the novel object compared to the time spent exploring the learned object", "setting": "4R Tau^P301L-BiFC mouse [1]", "value": "significant increase"}, {"measurement": "motor ability (Rota-rod) compared to the reference compound LMTM-administered group", "setting": "4R Tau^P301L-BiFC mouse [2]; GV2002 2 mg/kg subcutaneous vs LMTM 15 mg/kg oral", "value": "relatively enhanced motor ability"}, {"measurement": "motor ability (Rota-rod, time until fall) compared to the vehicle-administered group", "setting": "4R Tau^P301L-BiFC mouse [2]; GV2002 2 mg/kg subcutaneous, 7.5 to 12.5 months of age", "value": "significantly improved motor ability"}, {"measurement": "AUC(0-t)", "setting": "[3]; rat, plasma, intravenous (IV), non-compartmental analysis", "value": 438, "unit": "ng·h/mL"}, {"measurement": "in vivo persistence after subcutaneous administration", "setting": "[3]; subcutaneous (SC)", "value": "remains in a stable state in vivo without degradation and persists for a long period of time"}, {"measurement": "Tau-BiFC fluorescence intensity, reduction compared to the vehicle-administered group", "setting": "tau oligomer formation; hippocampus region", "value": 63, "unit": "%"}, {"measurement": "Tau-BiFC fluorescence intensity, reduction compared to the vehicle-administered group", "setting": "tau oligomer formation; motor cortex region", "value": 56, "unit": "%"}, {"measurement": "Tau-BiFC fluorescence intensity, reduction compared to the vehicle-administered group", "setting": "tau oligomer formation; somatosensory cortex region", "value": 58, "unit": "%"}, {"measurement": "Tau-BiFC fluorescence intensity, reduction compared to the vehicle-administered group", "setting": "tau oligomer formation; substantia nigra region", "value": 56, "unit": "%"}, {"measurement": "rate of spontaneous alternation behavior compared to the vehicle-administered group", "setting": "4R Tau^P301L-BiFC mouse [4]", "value": "significant increase"}, {"measurement": "movement speed in the open space compared to the vehicle-administered group", "setting": "4R Tau^P301L-BiFC mouse [5]", "value": "significantly higher"}, {"measurement": "total distance traveled in the open space compared to the vehicle-administered group", "setting": "4R Tau^P301L-BiFC mouse [5]", "value": "significantly higher"}, {"measurement": "remaining at 1 h, 5 µM", "setting": "[6]; 60 minutes", "value": 57.2, "unit": "%"}, {"measurement": "remaining at 4 h, 5 µM", "setting": "[6]; 240 minutes", "value": 46.5, "unit": "%"}]}
